Test system: LG0703-F948-PDC spheroids with HUVEC/MSC, viability
Assay: Anticancer human tumor LG0703-F948-PDC patient-derived lung adenocarcinoma cell line growth inhibition [IpAb]
Details: for IC50: curve of first compound; for viability, T/C: stronger effect = lower value
Procedure, shortened: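 Spheroids of 60% malignant cells, 25% HUVEC and 15% MSC were exposed to targeted agents combined with ipatasertib or abemaciclib. Doses started at or near clinical Cmax (10 microM when unknown) and fell in half-log steps.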

[1] = second compound 0.01 µM, first compound 0.00316 µM
[2] = second compound 0.01 µM, first compound 0.01 µM
[3] = second compound 0.01 µM, first compound 0.0316 µM
[4] = second compound 0.01 µM, first compound 0.1 µM
[5] = second compound 0.0316 µM, first compound 0.00316 µM
[6] = second compound 0.0316 µM, first compound 0.01 µM
[7] = second compound 0.0316 µM, first compound 0.0316 µM
[8] = second compound 0.0316 µM, first compound 0.1 µM
[9] = second compound 0.1 µM, first compound 0.00316 µM
[10] = second compound 0.1 µM, first compound 0.01 µM
[11] = second compound 0.1 µM, first compound 0.0316 µM
[12] = second compound 0.1 µM, first compound 0.1 µM
[13] = second compound 0.316 µM, first compound 0.00316 µM
[14] = second compound 0.316 µM, first compound 0.01 µM
[15] = second compound 0.316 µM, first compound 0.0316 µM
[16] = second compound 0.316 µM, first compound 0.1 µM
[17] = second compound 1 µM, first compound 0.00316 µM
[18] = second compound 1 µM, first compound 0.01 µM
[19] = second compound 1 µM, first compound 0.0316 µM
[20] = second compound 1 µM, first compound 0.1 µM
[21] = second compound 0.01 µM, first compound 0.316 µM
[22] = second compound 0.01 µM, first compound 1 µM
[23] = second compound 0.01 µM, first compound 3.16 µM
[24] = second compound 0.01 µM, first compound 10 µM
[25] = second compound 0.0316 µM, first compound 0.316 µM
[26] = second compound 0.0316 µM, first compound 1 µM
[27] = second compound 0.0316 µM, first compound 3.16 µM
[28] = second compound 0.0316 µM, first compound 10 µM
[29] = second compound 0.1 µM, first compound 0.316 µM
[30] = second compound 0.1 µM, first compound 1 µM
[31] = second compound 0.1 µM, first compound 3.16 µM
[32] = second compound 0.1 µM, first compound 10 µM
[33] = second compound 0.316 µM, first compound 0.316 µM
[34] = second compound 0.316 µM, first compound 1 µM
[35] = second compound 0.316 µM, first compound 3.16 µM
[36] = second compound 0.316 µM, first compound 10 µM
[37] = second compound 1 µM, first compound 0.316 µM
[38] = second compound 1 µM, first compound 1 µM
[39] = second compound 1 µM, first compound 3.16 µM
[40] = second compound 1 µM, first compound 10 µM
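Note: spheroids exposed to compounds for seven days before readout.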
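Throughout, for viability, T/C: T/C percent relative to DMSO vehicle wells set as 100% viability.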

SMILES	IC50 (second compound 0.01 µM) [nM]	IC50 (second compound 0.0316 µM) [nM]	IC50 (second compound 0.1 µM) [nM]	IC50 (second compound 0.316 µM) [nM]	IC50 (second compound 1 µM) [nM]	viability, T/C [3] [%]	viability, T/C [4] [%]	viability, T/C [7] [%]	viability, T/C [8] [%]	viability, T/C [11] [%]	viability, T/C [12] [%]	viability, T/C [15] [%]	viability, T/C [16] [%]	viability, T/C [19] [%]	viability, T/C [20] [%]	viability, T/C [21] [%]	viability, T/C [22] [%]	viability, T/C [25] [%]	viability, T/C [26] [%]	viability, T/C [29] [%]	other results
CC(C)n1nc(-c2ccc3oc(N)nc3c2)c2c(N)ncnc21 + CCN1CCN(Cc2ccc(Nc3ncc(F)c(-c4cc(F)c5nc(C)n(C(C)C)c5c4)n3)nc2)CC1	4.38	3.3	4.23	6.16	3.98	24	21.4	22.3	21.8	29.3	22.3	32	24.8	44.1	28.8	–	–	–	–	–	viability, T/C (second compound 0.01 µM, first compound 0.000316 µM): 112%; viability, T/C (second compound 0.01 µM, first compound 0.001 µM): 78.6%; viability, T/C [1]: 56.5%; viability, T/C [2]: 38%; viability, T/C (second compound 0.0316 µM, first compound 0.000316 µM): 87.9%; viability, T/C (second compound 0.0316 µM, first compound 0.001 µM): 70.1%; viability, T/C [5]: 52%; viability, T/C [6]: 33.9%; viability, T/C (second compound 0.1 µM, first compound 0.000316 µM): 87.4%; viability, T/C (second compound 0.1 µM, first compound 0.001 µM): 71.2%; viability, T/C [9]: 52.1%; viability, T/C [10]: 40.5%; viability, T/C (second compound 0.316 µM, first compound 0.000316 µM): 82.5%; viability, T/C (second compound 0.316 µM, first compound 0.001 µM): 77.1%; viability, T/C [13]: 58.4%; viability, T/C [14]: 43%; viability, T/C (second compound 1 µM, first compound 0.000316 µM): 90%; viability, T/C (second compound 1 µM, first compound 0.001 µM): 65%; viability, T/C [17]: 48.1%; viability, T/C [18]: 46.6%
CC1(C)CCC(CN2CCN(c3ccc(C(=O)NS(=O)(=O)c4ccc(NCC5CCOCC5)c([N+](=O)[O-])c4)c(Oc4cnc5[nH]ccc5c4)c3)CC2)=C(c2ccc(Cl)cc2)C1 + CCN1CCN(Cc2ccc(Nc3ncc(F)c(-c4cc(F)c5nc(C)n(C(C)C)c5c4)n3)nc2)CC1	5080	5000	4920	4120	1290	102	100	81.8	102	92.4	86.8	87.9	88.8	85	79	100	87.2	84.3	91	72.3	viability, T/C [23]: 77.9%; viability, T/C [24]: 13.5%; viability, T/C [27]: 75.3%; viability, T/C [28]: 11.4%; viability, T/C [30]: 88.5%; viability, T/C [31]: 73.8%; viability, T/C [32]: 11.3%; viability, T/C [33]: 79.9%; viability, T/C [34]: 79%; viability, T/C [35]: 62.6%; viability, T/C [36]: 11.1%; viability, T/C [37]: 46.9%; viability, T/C [38]: 65.8%; viability, T/C [39]: 36.9%; viability, T/C [40]: 2.51%
CCCS(=O)(=O)Nc1ccc(F)c(C(=O)c2c[nH]c3ncc(-c4ccc(Cl)cc4)cc23)c1F + CCN1CCN(Cc2ccc(Nc3ncc(F)c(-c4cc(F)c5nc(C)n(C(C)C)c5c4)n3)nc2)CC1	> 10000	> 10000	> 10000	> 10000	> 10000	112	115	94.5	86.9	91	81.6	89	97.3	90.6	68.2	101	99.1	95.1	89.5	91.7	viability, T/C [23]: 100%; viability, T/C [24]: 59.5%; viability, T/C [27]: 90.9%; viability, T/C [28]: 67.2%; viability, T/C [30]: 90.9%; viability, T/C [31]: 87.2%; viability, T/C [32]: 59.1%; viability, T/C [33]: 76.6%; viability, T/C [34]: 88.1%; viability, T/C [35]: 79%; viability, T/C [36]: 51.5%; viability, T/C [37]: 52.5%; viability, T/C [38]: 80%; viability, T/C [39]: 75.6%; viability, T/C [40]: 44.8%
COc1c(OCCCN2CCOCC2)ccc2c3n(c(=NC(=O)c4cnc(N)nc4)nc12)CCN3 + CCN1CCN(Cc2ccc(Nc3ncc(F)c(-c4cc(F)c5nc(C)n(C(C)C)c5c4)n3)nc2)CC1	36.7	32.2	30.6	25.3	17	58.3	20.7	47.6	22.8	48	21.2	43.7	23.7	33.9	24.6	5.32	3.66	4.08	3.07	5.61	viability, T/C [1]: 101%; viability, T/C [2]: 79.2%; viability, T/C [5]: 90.4%; viability, T/C [6]: 82.8%; viability, T/C [9]: 85.4%; viability, T/C [10]: 77.1%; viability, T/C [30]: 3.57%; viability, T/C [13]: 81.6%; viability, T/C [14]: 71.2%; viability, T/C [33]: 9.48%; viability, T/C [34]: 9.41%; viability, T/C [17]: 82.3%; viability, T/C [18]: 63%; viability, T/C [37]: 19.3%; viability, T/C [38]: 11.8%
Cc1nc(NC(=O)N2CCCC2C(N)=O)sc1-c1ccnc(C(C)(C)C(F)(F)F)c1 (stereo not given) + CCN1CCN(Cc2ccc(Nc3ncc(F)c(-c4cc(F)c5nc(C)n(C(C)C)c5c4)n3)nc2)CC1	1480	1120	676	955	421	93.3	88.1	95.3	78.9	83.6	83.2	81.9	79.3	75.8	65.5	81.3	61.2	64.9	60.9	49.9	viability, T/C [23]: 28.8%; viability, T/C [24]: 3.09%; viability, T/C [27]: 25.5%; viability, T/C [28]: 2.8%; viability, T/C [30]: 46.4%; viability, T/C [31]: 33%; viability, T/C [32]: 3.21%; viability, T/C [33]: 60.9%; viability, T/C [34]: 50.8%; viability, T/C [35]: 30.6%; viability, T/C [36]: 9.55%; viability, T/C [37]: 40.8%; viability, T/C [38]: 50%; viability, T/C [39]: 32.6%; viability, T/C [40]: 12.4%

Source: PubChem BioAssay AID2060330 (Molecular Pharmacology Branch, DTP, NCI, 2025)
